Reference: patent publication US12065438B2, “Substituted tricyclic compounds as indoleamine 2,3-dioxygenase inhibitors” (Merck Sharp & Dohme LLC, priority 2019, dated 2024)

Target: IDO1 (Homo sapiens, UniProt P14902)
Assay: IDO1 Cellular Assay in HeLa Cells Stimulated with IFNγ
Assay type: cell-based
Design: endogenous in cells; host or cells: HeLa cells stimulated with IFNγ
Conditions: HeLa cells stimulated with IFNγ 100 ng/mL, 300 uM L-tryptophan, about 48 hours, fluorescence readout; read-out: IDO1 HELA Cell Assay, IC50
Description: Biological Assays IDO1 Cellular Assay in HeLa Cells Stimulated with IFNγ HeLa cells were cultured in complete HeLa culture medium (90% EMEM, 10% heat-inactivated fetal bovine serum) and expanded to about 1×10^9 cells. The cells were then collected and frozen down at 1×10^7 cells/vial in 1 mL frozen medium (90% complete HeLa culture medium, 10% DMSO). Compounds to be tested were serially diluted in ten 3-fold steps in DMSO starting from 10 mM DMSO stocks in Echo low volume plate(s). Compound dilutions or DMSO alone were then dispensed from the dilution plate(s) into Greiner black 384-well assay plate(s) (catalog #781086, 50 nL/well) using an Echo 550 acoustic liquid handler (Labcyte). Frozen HeLa cells were thawed and transferred into HeLa assay medium (99% complete HeLa culture medium, 1% Pen/Strep) with 20 mL medium/vial of cells. The cells were spun down at 250 g in a table top centrifuge for 5 min and suspended in same volume of HeLa assay medium. The cells were then counted and adjusted to a density of 2×10^5 cells/mL in HeLa assay medium. Sterile L-tryptophan were added to the cells with final concentration of 300 uM L-tryptophan. A small aliquot (2 mL/plate) of HeLa cells were set aside and were not treated with IFNγ, to serve as the Max-E control. The rest of HeLa cells were added with sterile IFNγ (Cat #285-IF, R & D systems) with a final concentration of 100 ng/mL. HeLa cells with and without IFNγ were dispensed to the respective wells of 384-well assay plates containing the compounds. The plates were incubated for about 48 hours at a 37° C., 5% CO2 incubator. Afterwards, 12 μL of 0.5 M methyl isonipecotate in dimethyl sulfoxide were added into each well and the plates were sealed and incubated at 37° C. without CO2 overnight. The plates were centrifuged for 1 min at 200×g. The resulting fluorescence was measured in a Spectramax plate reader (Molecular Devices) with a 400 nm excitation filter and a 510 nm emission filter. The fluorescence intensity of each well was corrected for the background observed in wells with non-IFNγ-treated cells and was expressed as a fraction of the intensity observed in wells of IFNγ-treated cells and DMSO only. Potencies were calculated by […] least squares fit to the four parameter logistic IC50 equation.

Sequence of IDO1 (P14902 whole entry): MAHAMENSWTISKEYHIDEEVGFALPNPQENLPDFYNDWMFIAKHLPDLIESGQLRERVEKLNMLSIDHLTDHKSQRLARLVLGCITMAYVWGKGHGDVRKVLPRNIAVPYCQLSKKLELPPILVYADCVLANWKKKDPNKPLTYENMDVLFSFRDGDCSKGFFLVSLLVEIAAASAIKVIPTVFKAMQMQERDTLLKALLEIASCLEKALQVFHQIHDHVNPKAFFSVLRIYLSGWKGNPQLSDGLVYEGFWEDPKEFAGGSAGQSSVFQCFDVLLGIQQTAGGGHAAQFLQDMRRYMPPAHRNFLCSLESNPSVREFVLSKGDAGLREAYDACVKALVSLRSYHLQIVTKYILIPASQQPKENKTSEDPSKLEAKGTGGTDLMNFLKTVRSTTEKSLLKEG

| SMILES | IC50 [nM] |
| --- | --- |
| Cc1nccc(N2c3ccc(C4(NC(=O)c5ccc(F)cc5)CC4)cc3CC3CCC32)n1 (stereo not shown) [Example 5, 4-fluoro-N-(1-(3-(2-methylpyrimidin-4-yl)-1,2,2a,3,8,8a-hexahydrocyclobuta[b]quinolin-6-yl)cyclopropyl)benzamide] | 4.71 |
| COC(=O)c1nccc(N2CC3CC3c3nc(C4(NC(=O)c5ccc(F)cc5)CC4)ccc32)n1 (stereo not shown) [Example 17, methyl 4-(2-(1-(4-fluorobenzamido)cyclopropyl)-6,6a,7,7a-tetrahydro-5H-cyclopropa[c][1,5]naphthyridin-5-yl)pyrimidine-2-carboxylate] | 9.02 |
| O=C(NC1(c2ccc3c(n2)[C@H]2C[C@H]2CN3C(=O)OC2CCOCC2)CC1)c1ccc(F)cc1 [Example 22, tetrahydro-2H-pyran-4-yl (6aR,7aS)-2-(1-(4-fluorobenzamido)cyclo-propyl)-6,6a,7,7a-tetra-hydro-5H-cyclopropa[c]-[1,5]naphthyridine-5-carboxylate] | 61.6 |
| O=C(NC1(c2ccc3c(n2)[C@@H]2C[C@@H]2CN3C(=O)OC2CCOCC2)CC1)c1ccc(F)cc1 [Example 23, tetrahydro-2H-pyran-4-yl (6aS,7aR)-2-(1-(4-fluoro-benzamido)cyclopropyl)-6,6a,7,7a-tetrahydro-5H-cyclopropa[c][1,5]-naphthyridine-5-carboxylate] | 17 |
| C[C@H](NC(=O)c1ccc(F)cc1)c1ccc2c(n1)[C@H]1C[C@H]1CN2C(=O)OC1CC1 [Example 25, cyclopropyl (6aR,7aS)-2-((S)-1-(4-fluorobenzamido)-ethyl)-6,6a,7,7a-tetrahydro-5H-cyclopropa[c][1,5]-naphthyridine-5-carboxylate] | 15.4 |
| Cc1nccc(N2C[C@@H]3C[C@@H]3c3nc([C@]4(NC(=O)c5ccc(F)cc5)C[C@H]4C)ccc32)n1 [Example 39, 4-fluoro-N-((1S,2R)-2-methyl-1-((6aR,7aS)-5-(2-methyl-pyrimidin-4-yl)-6,6a,7,7a-tetra-hydro-5H-cyclopropa[c][1,5]-naphthyridin-2-yl)cyclopropyl)-benzamide] | 10.5 |
| Cc1nccc(N2C[C@H]3C[C@H]3c3nc([C@]4(NC(=O)c5ccc(F)cc5)C[C@@H]4C)ccc32)n1 [Example 46, 4-fluoro-N-((1S,2S)-2-methyl-1-((6aS,7aR)-5-(2-methyl-pyrimidin-4-yl)-6,6a,7,7a-tetra-hydro-5H-cyclopropa[c][1,5]-naphthyridin-2-yl)cyclopropyl)-benzamide] | 24.4 |
| O=C(NC1(c2ccc3c(n2)C2CC(C2)N3C(=O)OCc2ccccc2)CC1)c1ccc(F)cc1 [Example 49, benzyl 6-(1-(4-fluorobenzamido)cyclopropyl)-3,4-dihydro-2,4-methano-1,5-naphthyridine-1(2H)-carboxylate] | 20.4 |
| Cc1nccc(N2c3ccc(C4(NC(=O)c5ccc(F)cc5)CC4)nc3C3CC2C3)n1 [Example 51, 4-fluoro-N-(1-(1-(2-methylpyrimidin-4-yl)-1,2,3,4-tetrahydro-2,4-methano-1,5-naphthyridin-6-yl)cyclopropyl)benzamide] | 8.08 |
| CC(C)(C)OC(=O)N1C[C@@H]2C[C@@H]2c2nc(C3(NC(=O)c4ccc(F)cc4)CC3)ccc21 [Example 52, tert-butyl (6aR,7aS)-2-(1-(4-fluorobenzamido)cyclopropyl)-6,6a,7,7a-tetrahydro-5H-cyclo-propa[c][1,5]naphthyridine-5-carboxylate] | 96.6 |
| CC(C)(C)OC(=O)N1C[C@H]2C[C@H]2c2nc(C3(NC(=O)c4ccc(F)cc4)CC3)ccc21 [Example 53, tert-butyl (6aS,7aR)-2-(1-(4-fluorobenzamido)cyclopropyl)-6,6a,7,7a-tetrahydro-5H-cyclo-propa[c][1,5]naphthyridine-5-carboxylate] | 4.62 |
| CC(C)(NC(=O)c1ccc(F)cc1)c1ccc2c(n1)C1CC1CN2 (stereo not shown) [Example 54, 4-fluoro-N-(2-(6,6a,7,7a-tetra-hydro-5H-cyclopropa[c][1,5]-naphthyridin-2-yl)propan-2-yl)-benzamide] | 4900 |

The remaining lines, values ahead:

| IC50 [nM] | SMILES |
| --- | --- |
| 96.7 | CC(C)(C)OC(=O)N1CC2CC2c2nc(C3(NC(=O)c4ccc(F)cc4)CC3)ccc21 (stereo not shown) [Example 10, tert-butyl 2-(1-(4-fluorobenzamido)cyclopropyl)-6,6a,7,7a-tetrahydro-5H-cyclopropa[c][1,5]naphthyridine-5-carboxylate] |
| 2300 | O=C(NC1(c2ccc3c(n2)C2CC2CN3)CC1)c1ccc(F)cc1 (stereo not shown) [Example 11, 4-fluoro-N-(1-(6,6a,7,7a-tetrahydro-5H-cyclopropa[c][1,5]naphthyridin-2-yl)cyclopropyl)benzamide] |
| 20.9 | CC(NC(=O)c1ccc(F)cc1)c1ccc2c(n1)C1CC1CN2C(=O)OC(C)(C)C (stereo not shown) [Example 24, tert-butyl 2-(1-(4-fluorobenzamido)ethyl)-6,6a,7,7a-tetrahydro-5H-cyclopropa[c][1,5]naphthyridine-5-carboxylate] |
| 35 | C[C@H](NC(=O)c1ccc(F)cc1)c1ccc2c(n1)[C@@H]1C[C@@H]1CN2C(=O)OC1CC1 [Example 26, cyclopropyl (6aS,7aR)-2-((S)-1-(4-fluorobenzamido)-ethyl)-6,6a,7,7a-tetrahydro-5H-cyclopropa[c][1,5]-naphthyridine-5-carboxylate] |
| 29.3 | C[C@@H](NC(=O)c1ccc(F)cc1)c1ccc2c(n1)[C@H]1C[C@H]1CN2C(=O)OC1CC1 [Example 28, cyclopropyl (6aR,7aS)-2-((R)-1-(4-fluorobenzamido)-ethyl)-6,6a,7,7a-tetrahydro-5H-cyclopropa[c][1,5]-naphthyridine-5-carboxylate] |
| 2.83 | Cc1nccc(N2C[C@@H]3C[C@@H]3c3nc([C@@]4(NC(=O)c5ccc(F)cc5)C[C@@H]4C)ccc32)n1 [Example 40, 4-fluoro-N-((1R,2S)-2-methyl-1-((6aR,7aS)-5-(2-methyl-pyrimidin-4-yl)-6,6a,7,7a-tetra-hydro-5H-cyclopropa[c][1,5]-naphthyridin-2-yl)cyclopropyl)-benzamide] |
| 2.36 | Cc1nccc(N2C[C@@H]3C[C@@H]3c3nc([C@@]4(NC(=O)c5ccc(F)cc5)C[C@H]4C)ccc32)n1 [Example 41, 4-fluoro-N-((1R,2R)-2-methyl-1-((6aR,7aS)-5-(2-methyl-pyrimidin-4-yl)-6,6a,7,7a-tetra-hydro-5H-cyclopropa[c][1,5]-naphthyridin-2-yl)cyclopropyl)-benzamide] |
| 3.17 | Cc1nccc(N2C[C@@H]3C[C@@H]3c3nc([C@]4(NC(=O)c5ccc(F)cc5)C[C@@H]4C)ccc32)n1 [Example 42, 4-fluoro-N-((1S,2S)-2-methyl-1-((6aR,7aS)-5-(2-methyl-pyrimidin-4-yl)-6,6a,7,7a-tetra-hydro-5H-cyclopropa[c][1,5]-naphthyridin-2-yl)cyclopropyl)-benzamide] |
| 3.27 | Cc1nccc(N2C[C@H]3C[C@H]3c3nc([C@@]4(NC(=O)c5ccc(F)cc5)C[C@H]4C)ccc32)n1 [Example 43, 4-fluoro-N-((1R,2R)-2-methyl-1-((6aS,7aR)-5-(2-methyl-pyrimidin-4-yl)-6,6a,7,7a-tetra-hydro-5H-cyclopropa[c][1,5]-naphthyridin-2-yl)cyclopropyl)-benzamide] |
| 4.34 | Cc1nccc(N2C[C@H]3C[C@H]3c3nc([C@]4(NC(=O)c5ccc(F)cc5)C[C@H]4C)ccc32)n1 [Example 44, 4-fluoro-N-((1S,2R)-2-methyl-1-((6aS,7aR)-5-(2-methyl-pyrimidin-4-yl)-6,6a,7,7a-tetra-hydro-5H-cyclopropa[c][1,5]-naphthyridin-2-yl)cyclopropyl)-benzamide] |
| 3.39 | Cc1nccc(N2C[C@H]3C[C@H]3c3nc([C@@]4(NC(=O)c5ccc(F)cc5)C[C@@H]4C)ccc32)n1 [Example 45, 4-fluoro-N-((1R,2S)-2-methyl-1-((6aS,7aR)-5-(2-methyl-pyrimidin-4-yl)-6,6a,7,7a-tetra-hydro-5H-cyclopropa[c][1,5]-naphthyridin-2-yl)cyclopropyl)-benzamide] |
| 76.3 | Cc1nccc(N2c3ccc(C4(NC(=O)c5ccc(F)cc5)CC4)nc3C3CC2C3C)n1 (stereo not shown) [Example 48, 4-fluoro-N-(1-(3-methyl-1-(2-methylpyrimidin-4-yl)-1,2,3,4-tetrahydro-2,4-methano-1,5-naphthyridin-6-yl)cyclopropyl)benzamide] |
| 5.76 | O=C(NC1(c2ccc3c(n2)C2CC(C2)N3C(=O)OC2CC2)CC1)c1ccc(F)cc1 [Example 50, cyclopropyl 6-(1-(4-fluorobenzamido)cyclopropyl)-3,4-dihydro-2,4-methano-1,5-naphthyridine-1(2H)-carboxylate] |
